Patent publication US20250179047A1, “5-[7-(3,4-DIHYDRO-1H-ISOQUINOLINE-2-CARBONYL)-1,2,3,4 TETRAHYDROISOQUINOLIN-6-YL]-1H-PYRROLE-3-CARBOXAMIDE DERIVATIVES, PHARMACEUTICAL COMPOSITIONS CONTAINING THEM AND THEIR USES AS PRO-APOPTOTIC AGENTS” (LES LABORATOIRES SERVIER, priority 2022, published 2025)
Like-named read-outs stand apart in the source and are kept apart here.

What was measured:
BCL2 WT = BCL2 WT (Homo sapiens (Human), UniProt P10415); assay: TR-FRET competitive binding assay, BCL2 WT
Procedure: (§1) The relative binding potency of each compound was determined in a competitive binding assay using time resolved-fluorescence resonance energy transfer (TR-FRET). The method utilised a fluorescein labelled peptide derived from PUMA (5Flu-Ahx-[…]-NH2 wherein Ahx means 6-hexanoic acid monomer and the amino acid sequence is referred to as SEQ ID:01) which binds to a terbium labelled BCL2 or BCLXL protein. The degree of binding or corresponding compound inhibition can be quantified by the TR-FRET signal between the terbium donor and fluorescein acceptor.
(§2) The human BCL2_wild-type (also named BCL2_wt), BCL2_G101V mutant and BCLXL_wild-type were E. coli expressed as a N-terminal Halo-fusion proteins and singly labelled with Terbium on the Halo protein to afford the following amino acid sequences:
(§3) wherein the BCL2(1-207) sequence corresponds to UniProtKB® primary accession number P10415 and the BCLXL(2-196) sequence corresponds to UniProtKB® primary accession number Q07817-1.
(§4) The assay was performed in a 40 μL volume in white 384-standard well plates (Corning #3574). An 11-point serial dilution of each compound was prepared in DMSO and transferred directly to plate followed by addition of fluorescein labelled peptide and lastly protein. Final assay conditions were 0.5 nM BCL2_wt, BCL2_G101V, BCL2_D103Y, BCL2_F104I, BCL2_D111A or BCLXL_wt, 2 or 20 nM fluorescein labelled peptide, 50 mM Hepes pH 7.5, 150 mM NaCl, 0.5 mM TCEP (Tris(2-carboxyethyl)phosphine), 0.05% Tween 20, 5% DMSO. The mixture was incubated for 2 hours at 23° C.
(§5) TR-FRET measurements were performed on a Biotek Synergy Neo plate reader. TR-FRET was measured by excitation of the Terbium-donor at 340 nm and subsequent (delay time 100 μs) measurement of terbium and fluorescein emission at 495 nm and 520 nm, respectively, over a collection time of 300 μs. The TR-FRET signal was calculated as the emission-ratio at 520 nm over 495 nm.
(§6) The TR-FRET ratio readout for test compounds was normalized against 0% inhibition controls wells and 100% inhibition control wells. Test compound potency (IC50) was estimated by nonlinear regression using the sigmoidal dose-response (variable slope) using Xlfit 4 (IDBS, Guildford, Surrey, UK, model 205). Were the IC50 could not be determined the % inhibition at the highest tested concentration is given.
(§7) y=(A+((B−A)/(1+((C/x)^D))))
(§8) where y is the normalized TR-TRET ratio measurement for a given concentration of test compound, x is the concentration of test compound, A is the estimated efficacy (% inhibition) at infinite compound dilution, and B is the maximal efficacy (% inhibition). C is the IC50 value and D is the Hill slope coefficient.
(§9) The K1 values were determined from the IC50 values according to Cer et al, Nucleic Acids Res, 2009, July 1; 37 (WebServer issue): W441-W445.

BCLXL WT = BCLXL WT (Homo sapiens (Human), UniProt Q07817); assay: TR-FRET competitive binding assay, BCLXL WT; settings: for Ki: BCLXL WT, Ki determined from IC50, read-out: TR_FRET EKI BclxL; for TR_FRET EKI BCLxL/WT selectivty ratio: ratio Ki BCLxL / Ki BCL2 WT; for TR_FRET EKI BCLxL/WT selectivty: ratio of Ki BCLxL to BCL2 WT
Procedure: as §1, §2, §3, §4, §5, §6, §7, §8, §9

BCL2 D103Y = BCL2 D103Y (Homo sapiens, UniProt P10415, D103Y); assay: TR-FRET competitive binding assay, BCL2 D103Y; settings: Ki determined from IC50, read-out: TR_FRET EKI_Bcl2 D103Y
Procedure: as §1, §2, §3, §4, §5, §6, §7, §8, §9

KMS-12-PE Bcl-2 WT = assay: In vitro cytotoxicity CellTiter-Glo 48 h, KMS-12-PE Bcl-2 WT; assay type: cell-based; settings: Homo sapiens, KMS-12-PE, C50 = concentration needed to reach 50% of the cellular viability
Procedure: KMS-12-PE (ACC 606) were purchased from the Leibniz-Institute DSMZ (Braunschweig, Germany) and were grown at 37° C. in a humidified atmosphere with […] in media recommended by the suppliers. Lentiviral particles containing Bcl-2 wild type (also named “Bcl2 WT”) and Bcl-2 mutated on G101V (also named “Bcl2 G101V”) were cloned into pcLV-CMV-DEST-IRES-TagRFP. Lentiviral particles (1×106) were mixed with Polybrene at 8 µg/ml and transduced by spinoculation for 1 h at 32° C. and incubated overnight. After 8 days, TagRFP positive-cells were sorted by FACS. BCL2 expression was monitored by immunoblotting using anti-Flag and anti-BCL2 antibodies.
Cellular viability was monitored with the cell viability assay (CellTiter-Glo®) on KMS-12-PE WT and G101V cell lines. The CellTiter-Glo® (CTG) Luminescent Cell Viability Assay (from Promega) is a homogeneous method to determine the number of viable cells in culture based on quantitation of the ATP present, which signals the presence of metabolically active cells.
Dose response of compounds are performed with 10 mM stock solutions (DMSO), 11-points curve, in a 384-well compound plate. The assay plate is prepared by stamping 40 nL from compound dilution plate of all different concentrations (e.g. 10 mM to have final […] assay test) into a cell culture microplate, using Echo acoustic liquid handling (Labcyte, Beckman). 40 μl of cell solution is added and cells are incubated with compounds for 48 h at 37° C., 5% CO2. CTG was added to the cells (according to the manufacturer instructions) and luminescence intensity was recorded using the Pherastar plate reader (BMG).
This assay provides in vitro cellular potency of the tested Bcl-2 inhibitors, measuring the C50, defined as the concentration needed to reach 50% of the cellular viability.

BCL2 G101V [1] = assay: TR-FRET competitive binding assay, BCL2 G101V; set-up: species or system human; settings: for TR_FRET EKI G101V/WT selectivty ratio: ratio Ki BCL2 G101V / Ki BCL2 WT; for TR_FRET EKI G101V/WT selectivty: ratio of Ki BCL2 G101V to BCL2 WT
Procedure: as §1, §2, §3, §4, §5, §6, §7, §8, §9

BCL2 G101V [2] = target: BCL2 G101V (Homo sapiens, UniProt P10415, G101V); assay: TR-FRET competitive binding assay, BCL2 G101V; settings: BCL2 G101V; Ki determined from IC50; read-out: TR_FRET EKI_Bcl2 G101V
Procedure: as §1, §2, §3, §4, §5, §6, §7, §8, §9

[3] = Ki determined from IC50, read-out: TR_FRET EKI_Bcl2 WT
[4] = Ki determined from IC50, read-out: TR_FRET EKI_Bcl2

Chain of BCLXL WT (Q07817 other isoform, or with tags, fused parts or gaps): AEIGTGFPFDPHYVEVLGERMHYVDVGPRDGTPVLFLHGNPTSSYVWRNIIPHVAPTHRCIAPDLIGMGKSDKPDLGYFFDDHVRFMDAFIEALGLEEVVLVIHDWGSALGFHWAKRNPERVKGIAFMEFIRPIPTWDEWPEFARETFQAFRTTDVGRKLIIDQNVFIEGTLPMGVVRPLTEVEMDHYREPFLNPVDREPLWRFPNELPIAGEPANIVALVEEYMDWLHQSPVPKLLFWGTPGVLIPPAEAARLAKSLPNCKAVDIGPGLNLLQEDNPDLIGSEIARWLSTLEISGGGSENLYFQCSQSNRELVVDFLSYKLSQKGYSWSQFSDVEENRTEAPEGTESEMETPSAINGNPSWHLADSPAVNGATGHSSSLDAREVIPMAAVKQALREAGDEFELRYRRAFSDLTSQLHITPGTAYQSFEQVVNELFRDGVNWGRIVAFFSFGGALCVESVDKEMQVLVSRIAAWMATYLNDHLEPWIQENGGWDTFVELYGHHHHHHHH

Compound | Ki (BCL2 WT; [3]) | Ki (BCLXL WT) | TR_FRET EKI BCLxL/WT selectivty ratio (BCLXL WT) | Ki (BCL2 D103Y) | IC50 (KMS-12-PE Bcl-2 WT) | TR_FRET EKI G101V/WT selectivty ratio (BCL2 G101V [1]) | Ki (BCL2 G101V [2]) | Ki (BCL2 WT; [4]) | TR_FRET EKI BCLxL/WT selectivty (BCLXL WT) | TR_FRET EKI G101V/WT selectivty (BCL2 G101V [1])
Cc1c(N(C(=O)c2cc(-c3cc4c(cc3C(=O)N3Cc5ccccc5C[C@H]3CN3CCCCC3)CN(C(=O)C(F)(F)c3ccc(OCCN5CCOCC5)cc3)CC4)n(C)c2C)c2ccc(O)cc2)cc(C#N)n1C [Example 178, N-(5-cyano-1,2-dimethyl-pyrrol-3-yl)-5-[2-[2,2-difluoro-2-[4-(2-morpholinoethoxy)phenyl]acetyl]-7-[(3S)-3-(1-piperidylmethyl)-3,4-dihydro-1H-isoquinoline-2-carbonyl]-3,4-dihydro-1H-isoquinolin-6-yl]-N-(4-hydroxyphenyl)-1,2-dimethyl-pyrrole-3-carboxamide] | 0.09 nM | 11.9 nM | 137.8 | 0.16 nM | 0.0109 µM | 15.3 | 1.3 nM | – | – | –
Cc1c(C(=O)N(c2ccc(O)cc2)c2cc(C#N)n(C(F)F)c2C)cc(-c2cc3c(cc2C(=O)N2Cc4ccccc4C[C@H]2CN2CC4(CCC4)C2)CN(C(=O)Cc2ccc(OCCC4CCOCC4)cc2)CC3)n1C [Example 180, 5-[7-[(3S)-3-(2-azaspiro[3.3]heptan-2-ylmethyl)-3,4-dihydro-1H-isoquinoline-2-carbonyl]-2-[2-[4-(2-tetrahydropyran-4-ylethoxy)phenyl]acetyl]-3,4-dihydro-1H-isoquinolin-6-yl]-N-[5-cyano-1-(difluoromethyl)-2-methyl-pyrrol-3-yl]-N-(4-hydroxyphenyl)-1,2-dimethyl-pyrrole-3-carboxamide] | 0.07 nM | 17.2 nM | 252.5 | 0.15 nM | 0.0078 µM | 4.5 | 0.3 nM | – | – | –
COc1ccc(N(C(=O)c2cc(-c3cc4c(cc3C(=O)N3Cc5ccccc5C[C@H]3CN3CC5(CCC5)C3)CN(C(=O)Cc3ccc(OCCN5CCOCC5)cc3F)CC4)n(C)c2C)c2ccc(O)cc2)cc1C#N [Example 181, 5-[7-[(3S)-3-(2-azaspiro[3.3]heptan-2-ylmethyl)-3,4-dihydro-1H-isoquinoline-2-carbonyl]-2-[2-[2-fluoro-4-(2-morpholinoethoxy)phenyl]acetyl]-3,4-dihydro-1H-isoquinolin-6-yl]-N-(3-cyano-4-methoxy-phenyl)-N-(4-hydroxyphenyl)-1,2-dimethyl-pyrrole-3-carboxamide] | 0.04 nM | 9 nM | 248.7 | 0.09 nM | 0.0194 µM | 9.9 | 0.4 nM | – | – | –
COc1ccc(N(C(=O)c2cc(-c3cc4c(cc3C(=O)N3Cc5ccccc5C[C@H]3C)CN(C(=O)Cc3ccc(OCCN5CCOCC5)cc3)CC4)n(C)c2C)c2ccccc2)cc1C#N [Example 182, N-(3-cyano-4-methoxy-phenyl)-1,2-dimethyl-5-[7-[(3R)-3-methyl-3,4-dihydro-1H-isoquinoline-2-carbonyl]-2-[2-[4-(2-morpholinoethoxy)phenyl]acetyl]-3,4-dihydro-1H-isoquinolin-6-yl]-N-phenyl-pyrrole-3-carboxamide] | 0.11 nM | 11.8 nM | 107.1 | 0.3 nM | 0.0097 µM | 13.3 | 1.5 nM | – | – | –
Cc1cc(OCCN2CCOCC2)c(F)cc1CC(=O)N1CCc2cc(-c3cc(C(=O)N(c4ccc(O)cc4)c4cc(C#N)n(C)c4C)c(C)n3C)c(C(=O)N3Cc4ccccc4C[C@H]3CN3CCCCC3)cc2C1 [Example 223, N-(5-cyano-1,2-dimethyl-pyrrol-3-yl)-5-[2-[2-[5-fluoro-2-methyl-4-(2-morpholinoethoxy)phenyl]acetyl]-7-[(3S)-3-(1-piperidylmethyl)-3,4-dihydro-1H-isoquinoline-2-carbonyl]-3,4-dihydro-1H-isoquinolin-6-yl]-N-(4-hydroxyphenyl)-1,2-dimethyl-pyrrole-3-carboxamide] | 0.18 nM | 4.3 nM | 24.6 | 0.26 nM | – | 9.3 | 1.6 nM | – | – | –
Cc1cc(OCCN2CCOCC2)c(F)cc1CC(=O)N1CCc2cc(-c3cc(C(=O)N(c4ccc(O)cc4)c4cc(C#N)n(C)c4C)c(C)n3C)c(C(=O)N3Cc4ccccc4C[C@H]3C)cc2C1 [Example 224, N-(5-cyano-1,2-dimethyl-pyrrol-3-yl)-5-[2-[2-[5-fluoro-2-methyl-4-(2-morpholinoethoxy)phenyl]acetyl]-7-[(3R)-3-methyl-3,4-dihydro-1H-isoquinoline-2-carbonyl]-3,4-dihydro-1H-isoquinolin-6-yl]-N-(4-hydroxyphenyl)-1,2-dimethyl-pyrrole-3-carboxamide] | – | 1.3 nM | – | 0.18 nM | – | – | 0.8 nM | 0.073 nM | 17.7 | 10.5
Cc1cc(OCCN2CCOCC2)c(F)cc1CC(=O)N1CCc2cc(-c3cc(C(=O)N(c4ccccc4)c4cnn(C)c4)c(C)n3C)c(C(=O)N3Cc4ccccc4C[C@H]3C)cc2C1 [Example 225, 5-[2-[2-[5-fluoro-2-methyl-4-(2-morpholinoethoxy)phenyl]acetyl]-7-[(3R)-3-methyl-3,4-dihydro-1H-isoquinoline-2-carbonyl]-3,4-dihydro-1H-isoquinolin-6-yl]-1,2-dimethyl-N-(1-methylpyrazol-4-yl)-N-phenyl-pyrrole-3-carboxamide] | – | 23.6 nM | – | 0.14 nM | – | – | 25.6 nM | 0.11 nM | 214.3 | 233.0
